Measurements from PubChem BioAssay AID1963959 (Molecular Pharmacology Branch, DTP, NCI, 2024).

System: T-47D spheroids with HUVEC/MSC, viability
Assay: Anticancer human tumor T-47D cell line growth inhibition [PI3K];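 further: spheroids exposed to agents for seven days before reading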;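 on viability, T/C: percent of DMSO vehicle control luminescence so 100% = untreated growth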
Details: for viability, T/C: stronger effect = lower value
Outline: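 Complex 3D spheroids (cancer cells + endothelial HUVEC + mesenchymal stem cells); drug pairs of targeted agent x inavolisib/alpelisib/duvelisib/copanlisib; half-log series from ~Cmax, max 10 microM if Cmax unknown; endpoint viability.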

[1] = curve of first compound, second compound 0.0316 µM
[2] = curve of first compound, second compound 0.1 µM
[3] = curve of first compound, second compound 0.316 µM
[4] = curve of first compound, second compound 1 µM
[5] = second compound 0.0316 µM, first compound 0.0316 µM
[6] = second compound 0.0316 µM, first compound 0.1 µM
[7] = second compound 0.0316 µM, first compound 0.316 µM
[8] = second compound 0.0316 µM, first compound 1 µM
[9] = second compound 0.0316 µM, first compound 3.16 µM
[10] = second compound 0.0316 µM, first compound 10 µM
[11] = second compound 0.1 µM, first compound 0.0316 µM
[12] = second compound 0.1 µM, first compound 0.1 µM
[13] = second compound 0.1 µM, first compound 0.316 µM
[14] = second compound 0.1 µM, first compound 1 µM
[15] = second compound 0.1 µM, first compound 3.16 µM
[16] = second compound 0.1 µM, first compound 10 µM
[17] = second compound 0.316 µM, first compound 0.0316 µM
[18] = second compound 0.316 µM, first compound 0.1 µM
[19] = second compound 0.316 µM, first compound 0.316 µM
[20] = second compound 0.316 µM, first compound 1 µM
[21] = second compound 0.316 µM, first compound 3.16 µM
[22] = second compound 0.316 µM, first compound 10 µM
[23] = second compound 1 µM, first compound 0.0316 µM
[24] = second compound 1 µM, first compound 0.1 µM
[25] = second compound 1 µM, first compound 0.316 µM
[26] = second compound 1 µM, first compound 1 µM
[27] = second compound 1 µM, first compound 3.16 µM
[28] = second compound 1 µM, first compound 10 µM
[29] = curve of first compound, second compound 3.16 µM
[30] = curve of first compound, second compound 10 µM
[31] = second compound 3.16 µM, first compound 0.0316 µM
[32] = second compound 3.16 µM, first compound 0.1 µM
[33] = second compound 3.16 µM, first compound 0.316 µM
[34] = second compound 3.16 µM, first compound 1 µM
[35] = second compound 3.16 µM, first compound 3.16 µM
[36] = second compound 3.16 µM, first compound 10 µM
[37] = second compound 10 µM, first compound 0.0316 µM
[38] = second compound 10 µM, first compound 0.1 µM
[39] = second compound 10 µM, first compound 0.316 µM
[40] = second compound 10 µM, first compound 1 µM
[41] = second compound 10 µM, first compound 3.16 µM
[42] = second compound 10 µM, first compound 10 µM

C[C@@H](NC(=O)c1ncnc(N)c1Cl)c1ncc(C(=O)Nc2cc(C(F)(F)F)c(Cl)cn2)s1 + CC(Nc1ccc2c(c1)OCCn1cc(N3C(=O)OCC3C(F)F)nc1-2)C(N)=O
IC50 (curve of first compound, second compound 0.00316 µM): > 10 µM
IC50 (curve of first compound, second compound 0.01 µM): > 10 µM
IC50 [1]: > 10 µM
IC50 [2]: > 10 µM
IC50 [3]: > 10 µM
IC50 [4]: > 10 µM
viability, T/C (second compound 0.00316 µM, first compound 0.0316 µM): 110%
viability, T/C (second compound 0.00316 µM, first compound 0.1 µM): 92.2%
viability, T/C (second compound 0.00316 µM, first compound 0.316 µM): 87.9%
viability, T/C (second compound 0.00316 µM, first compound 1 µM): 79.2%
viability, T/C (second compound 0.00316 µM, first compound 3.16 µM): 94.5%
viability, T/C (second compound 0.00316 µM, first compound 10 µM): 99.3%
viability, T/C (second compound 0.01 µM, first compound 0.0316 µM): 104%
viability, T/C (second compound 0.01 µM, first compound 0.1 µM): 85.3%
viability, T/C (second compound 0.01 µM, first compound 0.316 µM): 87.4%
viability, T/C (second compound 0.01 µM, first compound 1 µM): 83.3%
viability, T/C (second compound 0.01 µM, first compound 3.16 µM): 113%
viability, T/C (second compound 0.01 µM, first compound 10 µM): 101%
viability, T/C [5]: 95.2%
viability, T/C [6]: 87.3%
viability, T/C [7]: 83.8%
viability, T/C [8]: 86.2%
viability, T/C [9]: 91.4%
viability, T/C [10]: 94.7%
viability, T/C [11]: 79.8%
viability, T/C [12]: 82%
viability, T/C [13]: 83.3%
viability, T/C [14]: 97.1%
viability, T/C [15]: 97.4%
viability, T/C [16]: 94.4%
viability, T/C [17]: 69.4%
viability, T/C [18]: 79.6%
viability, T/C [19]: 75.2%
viability, T/C [20]: 69.8%
viability, T/C [21]: 71.8%
viability, T/C [22]: 74.3%
viability, T/C [23]: 52.9%
viability, T/C [24]: 53.4%
viability, T/C [25]: 65%
viability, T/C [26]: 57.9%
viability, T/C [27]: 62.3%
viability, T/C [28]: 65.8%

CC1(C)CCC(CN2CCN(c3ccc(C(=O)NS(=O)(=O)c4ccc(NCC5CCOCC5)c([N+](=O)[O-])c4)c(Oc4cnc5[nH]ccc5c4)c3)CC2)=C(c2ccc(Cl)cc2)C1 + Cc1nc(NC(=O)N2CCCC2C(N)=O)sc1-c1ccnc(C(C)(C)C(F)(F)F)c1
IC50 [1]: > 10 µM
IC50 [2]: > 10 µM
IC50 [3]: > 10 µM
IC50 [4]: > 10 µM
IC50 [29]: > 10 µM
IC50 [30]: < 0.0316 µM
viability, T/C [5]: 106%
viability, T/C [6]: 94.2%
viability, T/C [7]: 111%
viability, T/C [8]: 99.2%
viability, T/C [9]: 78.1%
viability, T/C [10]: 87.8%
viability, T/C [11]: 118%
viability, T/C [12]: 92.3%
viability, T/C [13]: 92.9%
viability, T/C [14]: 89.6%
viability, T/C [15]: 108%
viability, T/C [16]: 73.3%
viability, T/C [17]: 98.8%
viability, T/C [18]: 101%
viability, T/C [19]: 89.3%
viability, T/C [20]: 94.3%
viability, T/C [21]: 94%
viability, T/C [22]: 80.1%
viability, T/C [23]: 99.4%
viability, T/C [24]: 99.1%
viability, T/C [25]: 102%
viability, T/C [26]: 85.3%
viability, T/C [27]: 76.9%
viability, T/C [28]: 71.2%
viability, T/C [31]: 78.5%
viability, T/C [32]: 65.6%
viability, T/C [33]: 64.2%
viability, T/C [34]: 59.8%
viability, T/C [35]: 64.5%
viability, T/C [36]: 57.1%
viability, T/C [37]: 40.1%
viability, T/C [38]: 41.7%
viability, T/C [39]: 37%
viability, T/C [40]: 31.4%
viability, T/C [41]: 30.2%
viability, T/C [42]: 34.2%

COc1c(OCCCN2CCOCC2)ccc2c3n(c(=NC(=O)c4cnc(N)nc4)nc12)CCN3
viability, T/C (compound 0.01 µM): 99.1% [middle of 8 runs]
viability, T/C (compound 0.0316 µM): 70.4% [middle of 8 runs]
viability, T/C (compound 0.1 µM): 45.4% [middle of 8 runs]
viability, T/C (compound 0.316 µM): 20.5% [middle of 8 runs]
viability, T/C (compound 1 µM): 7.09% [middle of 8 runs]
IC50 (compound alone, run of 04/25/2023): 86.9 nM [middle of 8 runs]

CC1(C)CCC(Nc2ncc(C(F)(F)F)c(-c3c[nH]c4c(P(C)(C)=O)c(C#N)ccc34)n2)CN1 (configuration not stated) + CC(Nc1ncnc2nc[nH]c12)c1cc2cccc(Cl)c2c(=O)n1-c1ccccc1
IC50 [1]: > 10 µM
IC50 [2]: > 10 µM
IC50 [3]: > 10 µM
IC50 [4]: > 10 µM
IC50 [29]: > 10 µM
IC50 [30]: 4.1 µM
viability, T/C [5]: 73.3%
viability, T/C [6]: 62.5%
viability, T/C [7]: 67.2%
viability, T/C [8]: 71.9%
viability, T/C [9]: 76.9%
viability, T/C [10]: 48.4%
viability, T/C [11]: 72.9%
viability, T/C [12]: 69.9%
viability, T/C [13]: 69.7%
viability, T/C [14]: 59.8%
viability, T/C [15]: 78.2%
viability, T/C [16]: 48.6%
viability, T/C [17]: 60.4%
viability, T/C [18]: 70.9%
viability, T/C [19]: 66%
viability, T/C [20]: 64.6%
viability, T/C [21]: 75.5%
viability, T/C [22]: 51%
viability, T/C [23]: 62.2%
viability, T/C [24]: 63.5%
viability, T/C [25]: 69.6%
viability, T/C [26]: 57.6%
viability, T/C [27]: 64.2%
viability, T/C [28]: 47.1%
viability, T/C [31]: 57.5%
viability, T/C [32]: 60.3%
viability, T/C [33]: 66.4%
viability, T/C [34]: 60%
viability, T/C [35]: 66.8%
viability, T/C [36]: 40.5%
viability, T/C [37]: 47.4%
viability, T/C [38]: 60.1%
viability, T/C [39]: 64.6%
viability, T/C [40]: 51.7%
viability, T/C [41]: 57.2%
viability, T/C [42]: 29%
